In a melting point compilation (Tetko et al.; mined from patent text by program, amines drawn as free bases though some values may be those of a salt):

Compound | melting point [°C]
COCCOc1ccc2c(C(C[N+](=O)[O-])c3cccc(NC(=O)OCc4ccccc4)c3C)c[nH]c2c1 (configuration not stated) | 125
CC(C)n1nc(-c2c(-c3ccccc3)nn3ccc(OCCC4CCCCC4)cc23)ccc1=O | 146 to 147
Cc1ccc2ccc(N3C(=O)c4ccccc4C3OC(=O)CCCC(C)C)nc2n1 (configuration not stated) | 144
Cc1cc(C)cc(Sc2cccc([N+](=O)[O-])c2C#N)c1 | 155 to 156
O=c1c(CCCc2cccnn2)cc2cccnc2n1-c1cccc([N+](=O)[O-])c1 | 234 to 235
N=c1sc2cc(OC(F)(F)F)ccc2n1CCSc1ncccn1 | 110
CC(C)(C)C(=O)Nc1c(SC(F)(F)F)c(C#N)nn1-c1c(Cl)cc(C(F)(F)F)cc1Cl | 172 to 174
Cc1ccc(S(=O)(=O)OCCCC2(C)NC(=O)NC2=O)cc1 (configuration not stated) | 126 to 127
N#Cc1cnc2cc(F)c(OCCN3CCOCC3)cc2c1Cl | 163 to 164
COc1cccc2c1CC(C(=O)NCCOc1ccc(C(=O)O)cc1)N2S(=O)(=O)c1ccc(-c2ccc(F)cc2Cl)cc1 (configuration not stated) | 190 to 204
COC(=O)c1coc(-c2ncn3c2CN(C)C(=O)c2ccccc2-3)n1 | 264 to 265
CN(c1cc(OC(F)(F)F)cc2cc(C3=NCCS3)[nH]c12)S(=O)(=O)c1cccs1 | 179 to 180
COc1ccc(C(=O)C2(C)CCC(C(=O)O)C2(C)C)c(OC)c1 (configuration not stated) | 134
CNC(=O)c1ccc(-c2n[nH]c3c2Cc2ccccc2-3)cc1 | 182 to 188
CC(C)NC(=O)OCC1CSC2=C(O1)c1ccccc1C(=O)C2=O (configuration not stated) | 218 to 220
CC1CC2C3CCC4=CC(=O)C=CC4(C)C3=CCC2(C)C1(O)C(=O)CO (configuration not stated) | 216 to 218
Nc1cnc2ccc(Cl)cc2n1 | 219 to 222
C#C[C@H](Cc1cccc(F)c1)n1nnc2cc3c(cc2c1=O)OCN(C1CC1)C3=O | 168 to 180
CCc1cc(C(C)=O)c(OC)cc1OCc1cccc(C#N)c1 | 124 to 126
COc1ccc(CNC(N)=S)cc1OCc1ccccc1 | 179 to 181
O=C1Nc2cccc(-c3cccc(NC(=O)c4ccc(F)cc4)c3)c2/C1=C/c1ccc[nH]1 | 130 to 131
OCC12CCCN(CC1)C2 (configuration not stated) | 44 to 47

Now from value to compound:

melting point [°C] | Compound
176 | CC(C)n1nc(-c2cnc(N)nc2-c2ccc(Cl)c(Cl)c2)ccc1=O
52.7 to 54.8 | CCCCCCCCCCCCCCCCCNC(=O)OC[C@@H]1CO[C@@H](COC(=O)NCc2ccccn2)C1 (relative stereo)
93 to 94 | O=C(CCCl)N(c1ccccc1)c1ccccc1
196 to 198 | C[C@@H](NC(=O)c1ccc(-c2csnn2)cc1)[C@](O)(Cn1cncn1)c1ccc(F)cc1F
240 to 242 | COC(=O)c1ccc2c(nc(C)n2C)c1C1=NC(C)(C(C)C)C(=O)N1 (configuration not stated)
78 to 79 | CC1(C)CCC(C)(C)c2cc(C(=O)OCc3ccc(C(=O)OCc4ccccc4)cc3)ccc21
109 to 112 | CCCCCS(=O)(=O)NC(=O)/C=C/c1cc(OC(C)C)nn1Cc1ccc(Cl)cc1Cl
180 to 182 | CC(C)(C)n1cc(-c2ccc(S(=O)c3ccccc3)cc2)c2c(N)ncnc21 (configuration not stated)
241 to 243 | N#Cc1ccc(C(=O)N2CCc3cc(S(=O)(=O)N4CC(c5ccccc5)NC4=O)ccc32)cc1 (configuration not stated)
117 to 118 | CCCCCCCCCCN1CC(C(=O)OC)N(S(=O)(=O)c2ccc(-c3ccc(Br)cc3)cc2)CC1=O (configuration not stated)
140 to 143 | CC1(O)c2ccccc2CC12CCC1(CC2)OCCO1 (configuration not stated)
287 | CCC(=O)Nc1cccc2c1C(=O)c1c-2n[nH]c1-c1ccc(OC)cc1
122 to 124 | COc1ccc2cc(-c3cnc(Cc4ccccc4)o3)ccc2c1
154 to 156 | CC(=O)NC[C@H]1CN(c2ccc(N3CCC(F)(CO)CC3)c(F)c2)C(=O)O1
206 | Nc1ccc2ccc(Oc3ccc(Cl)c(Cl)c3)nc2n1
